In patent publication US7618958B2, “Stereospecific anxiolytic and anticonvulsant agents with reduced muscle-relaxant, sedative-hypnotic and ataxic effects” (WISYS Technology Foundation, Inc., priority 2004, dated 2009):

Tests used:
Male Sprague-Dawley rats [1] = test: Open-field locomotor activity in rats; settings: for sedative or hypnotic effects (locomotor activity): compared with diazepam or triazolam; for Antianxiety/sedation: ratio of lowest effective anxiolytic dose (situational anxiety) and lowest effective dose producing side effects in locomotor activity, PO
Procedure: Open-Field Locomotor Activity in Rats
Male Sprague-Dawley rats, weighing 250-290 grams at the beginning of the experiment were purchased from Charles River Laboratories (Wilmington, Mass.). The animals were housed in groups of four in a colony room maintained at constant temperature (21±2° C.) and humidity (50±10%). The room was illuminated 12 hours per day (lights on at 0600 h). The rats had ad libitum access to food and water. The testing apparatus consisted of Plexiglas chambers (42×42×30 cm) equipped with Digiscan activity monitors (Omnitech Electronics, Columbus, Ohio) that detect interruptions of 16 photobeams spaced 2.5 cm apart and 2.5 cm above the floor. Horizontal activity was monitored for 60 minutes.
(§1) Drug Administration: All drugs were administered PO 20-60 minutes before behavioral testing.
(§2) Data Analysis: Results were expressed as the mean±1 SEM. All data were subjected to analysis of variance (ANOVA) followed by individual mean comparisons using Fisher's Least Significant Difference Test (Kirk, 1968) where appropriate. The significance level was set at p<0.05.
Rats were placed in an open field and the total distance covered by the rat was measured. The test duration was 60 minutes. Compounds producing sedative effects decrease the distance covered.

Male Sprague-Dawley rats [2] = test: Rotorod performance in rats; settings: for ataxia (rotorod): compared with diazepam or triazolam; for Antianxiety/ataxia: ratio of lowest effective anxiolytic dose (situational anxiety) and lowest effective dose producing side effects in rotorod, PO
Procedure: Rotorod Performance in Rats
Male Sprague-Dawley rats, weighing 180-200 grams at the beginning of the experiment were purchased from Charles River Laboratories (Wilmington, Mass.). The animals were housed in groups of four in a colony room maintained at constant temperature (21±2° C.) and humidity (50±10%). The room was illuminated 12 hours per day (lights on at 0600 h). The rats had ad libitum access to food and water. The degree of muscle coordination or balance (i.e., ataxia) was determined using a standard accelerating rotorod treadmill (Ugo Basile, Comerio-Varese, Italy or Columbus Instruments, Columbus, Ohio) that was 6 cm in diameter, 24 cm above the base, and run from an initial speed of 2 rpm to a maximum speed of 20 rpm. The time each animal remained on the rotating rod was automatically recorded, up to a maximum of 5 minutes.
as §1, §2
The time on the rod for each rat was recorded. Compounds producing ataxia (motor incoordination) decrease the time spent on the rod compared with vehicle-treated animals.

Male CF1 mice = test: Protection from pentylenetetrazole-induced seizures; assay type: in vivo, mouse; settings: for PTZ Seizures, effective dose: PO 60 min before pentylenetetrazole 125 mg/kg s.c.; for anticonvulsant effects against PTZ-induced seizures: PTZ 125 mg/kg
Procedure: Protection from Pentylenetetrazole-Induced Seizures
Male CF1 mice weighing 20-22 g at the time of the experiment were purchased from Charles River Laboratories (Wilmington, Mass.). Pentylenetetrazole (Sigma Chemical Co.) was administered at 125 mg/kg s.c. The number of animals surviving was recorded at 30 minutes and 60 minutes after administration of pentylenetetrazole.
Drug Administration: All drugs were administered PO 60 minutes before administration of pentyenetetrazole.
Data Analysis: The data are presented as the percent of animals protected from death. The data were analyzed by Chi Square statistics. The significance level was set at p<0.05.
Mice treated with certain compounds of the present invention were subjected to pentylenetetrazole (PTZ) at 125 mg/kg to induce seizures. The percent of animals protected from death within one hour of PTZ was measured.

GABAA/α5 receptors = GABAA/α5 receptors (Homo sapiens, UniProt P18507+P31644); settings: cited from earlier work
GABAA/α2 = GABAA/α2 (Homo sapiens, UniProt P18507+P47869); settings: cited from earlier work
GABAA/α3 = GABAA/α3 (Homo sapiens, UniProt P18507+P34903); settings: cited from earlier work
GABAA/α1 receptors = GABAA/α1 receptors (Homo sapiens, UniProt P14867+P18507); settings: cited from earlier work
Male Sprague-Dawley rats [3] = test: Discriminative stimulus effects of chlordiazepoxide in rats (drug discrimination); settings: for CDP-like effects (drug discrimination): compared with diazepam or triazolam; for Antianxiety/abuse liability: ratio of lowest effective anxiolytic dose (situational anxiety) and lowest effective dose producing chlordiazepoxide-like effects in drug discrimination

Sequence of GABAA/α1 receptors (P14867 28-456): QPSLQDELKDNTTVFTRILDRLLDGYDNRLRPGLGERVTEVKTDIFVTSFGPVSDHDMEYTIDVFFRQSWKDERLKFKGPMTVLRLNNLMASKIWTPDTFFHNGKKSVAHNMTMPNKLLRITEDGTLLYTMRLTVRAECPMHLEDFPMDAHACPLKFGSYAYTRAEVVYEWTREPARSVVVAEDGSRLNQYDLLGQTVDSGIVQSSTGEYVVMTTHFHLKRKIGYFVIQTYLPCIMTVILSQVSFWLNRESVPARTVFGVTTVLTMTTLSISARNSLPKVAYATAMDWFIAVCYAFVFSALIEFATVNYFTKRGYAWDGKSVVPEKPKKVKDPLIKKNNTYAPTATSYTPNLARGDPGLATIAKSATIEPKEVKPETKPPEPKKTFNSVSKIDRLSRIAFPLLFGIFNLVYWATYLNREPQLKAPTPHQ
Sequence of GABAA/α1 receptors (P28472 26-473 partner): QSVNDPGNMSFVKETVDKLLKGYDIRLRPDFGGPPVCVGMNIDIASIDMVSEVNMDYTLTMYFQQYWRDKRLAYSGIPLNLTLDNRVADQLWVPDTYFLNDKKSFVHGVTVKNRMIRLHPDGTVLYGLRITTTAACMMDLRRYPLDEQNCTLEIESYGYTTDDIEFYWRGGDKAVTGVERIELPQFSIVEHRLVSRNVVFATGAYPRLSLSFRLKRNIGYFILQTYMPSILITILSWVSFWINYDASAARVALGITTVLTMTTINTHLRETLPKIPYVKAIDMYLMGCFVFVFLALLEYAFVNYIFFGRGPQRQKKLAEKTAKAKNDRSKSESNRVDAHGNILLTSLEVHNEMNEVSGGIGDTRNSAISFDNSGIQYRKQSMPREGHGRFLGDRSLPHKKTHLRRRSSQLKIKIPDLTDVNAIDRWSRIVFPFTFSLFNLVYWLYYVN
Sequence of GABAA/α1 receptors (P18507 40-475): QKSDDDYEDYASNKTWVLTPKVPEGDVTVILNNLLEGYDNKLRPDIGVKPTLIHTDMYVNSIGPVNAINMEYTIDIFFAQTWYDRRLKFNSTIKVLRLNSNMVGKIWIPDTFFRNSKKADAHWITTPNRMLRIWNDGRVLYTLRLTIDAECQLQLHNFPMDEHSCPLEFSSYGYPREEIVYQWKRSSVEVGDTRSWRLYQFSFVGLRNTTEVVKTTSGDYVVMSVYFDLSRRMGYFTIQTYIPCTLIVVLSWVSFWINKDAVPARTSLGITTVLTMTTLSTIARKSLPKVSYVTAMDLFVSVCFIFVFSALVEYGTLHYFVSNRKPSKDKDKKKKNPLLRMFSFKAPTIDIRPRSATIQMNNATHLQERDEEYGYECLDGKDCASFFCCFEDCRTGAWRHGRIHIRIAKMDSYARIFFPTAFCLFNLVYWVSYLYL
Sequence of GABAA/α3 (P34903 29-492): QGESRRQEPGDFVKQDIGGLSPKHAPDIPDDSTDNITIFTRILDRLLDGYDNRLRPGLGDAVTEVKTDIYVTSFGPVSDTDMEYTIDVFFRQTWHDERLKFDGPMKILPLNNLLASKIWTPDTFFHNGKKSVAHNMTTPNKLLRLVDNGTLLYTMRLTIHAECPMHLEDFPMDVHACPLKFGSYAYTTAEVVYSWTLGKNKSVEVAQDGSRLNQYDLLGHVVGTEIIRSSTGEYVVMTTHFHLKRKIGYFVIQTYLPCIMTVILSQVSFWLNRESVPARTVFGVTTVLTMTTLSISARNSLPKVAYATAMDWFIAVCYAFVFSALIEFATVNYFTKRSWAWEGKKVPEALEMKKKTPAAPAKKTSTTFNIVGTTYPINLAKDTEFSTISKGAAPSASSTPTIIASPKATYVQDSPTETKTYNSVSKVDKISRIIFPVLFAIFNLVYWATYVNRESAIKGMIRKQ
Sequence of GABAA/α3 (P28472 26-473 partner): as the sequence (P28472 26-473 partner) above
Sequence of GABAA/α3 (P18507 40-475): as the sequence (P18507 40-475) above
Sequence of GABAA/α2 (P47869 29-451): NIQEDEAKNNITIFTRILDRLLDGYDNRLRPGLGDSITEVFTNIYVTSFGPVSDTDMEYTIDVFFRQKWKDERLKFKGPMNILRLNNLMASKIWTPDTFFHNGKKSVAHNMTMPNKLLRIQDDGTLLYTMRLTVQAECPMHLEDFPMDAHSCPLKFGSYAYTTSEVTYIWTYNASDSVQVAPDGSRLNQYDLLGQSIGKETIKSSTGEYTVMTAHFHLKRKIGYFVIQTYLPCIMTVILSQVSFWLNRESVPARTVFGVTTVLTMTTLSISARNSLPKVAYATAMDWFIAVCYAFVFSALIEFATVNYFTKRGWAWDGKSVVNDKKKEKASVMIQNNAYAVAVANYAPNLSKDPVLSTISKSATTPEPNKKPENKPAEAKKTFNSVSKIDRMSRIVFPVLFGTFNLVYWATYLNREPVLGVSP
Sequence of GABAA/α2 (P28472 26-473 partner): as the sequence (P28472 26-473 partner) above
Sequence of GABAA/α2 (P18507 40-475): as the sequence (P18507 40-475) above
Sequence of GABAA/α5 receptors (P31644 32-462): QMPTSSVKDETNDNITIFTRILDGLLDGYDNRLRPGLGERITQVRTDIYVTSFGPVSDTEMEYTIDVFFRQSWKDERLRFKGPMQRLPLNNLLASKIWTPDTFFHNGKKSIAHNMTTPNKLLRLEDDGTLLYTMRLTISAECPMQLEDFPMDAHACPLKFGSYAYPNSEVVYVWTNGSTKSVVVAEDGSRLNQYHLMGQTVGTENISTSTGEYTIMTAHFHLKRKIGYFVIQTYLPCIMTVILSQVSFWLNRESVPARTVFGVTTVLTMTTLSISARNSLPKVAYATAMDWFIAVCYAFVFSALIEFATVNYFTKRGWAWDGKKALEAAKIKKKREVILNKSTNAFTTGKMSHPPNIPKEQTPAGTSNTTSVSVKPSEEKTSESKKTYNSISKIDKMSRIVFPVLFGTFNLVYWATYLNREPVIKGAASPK
Sequence of GABAA/α5 receptors (P28472 26-473 partner): as the sequence (P28472 26-473 partner) above
Sequence of GABAA/α5 receptors (P18507 40-475): as the sequence (P18507 40-475) above

Compound	sedative or hypnotic effects (locomotor activity) (Male Sprague-Dawley rats [1])	Antianxiety/sedation (Male Sprague-Dawley rats [1])	ataxia (rotorod) (Male Sprague-Dawley rats [2])	Antianxiety/ataxia (Male Sprague-Dawley rats [2])	PTZ Seizures, effective dose (Male CF1 mice)	anticonvulsant effects against PTZ-induced seizures (Male CF1 mice)	Ki (GABAA/α5 receptors)	Ki (GABAA/α2)	Ki (GABAA/α3)	Ki (GABAA/α1 receptors)	CDP-like effects (drug discrimination) (Male Sprague-Dawley rats [3])	Antianxiety/abuse liability (Male Sprague-Dawley rats [3])
C#Cc1ccc2c(c1)C(c1ccccc1)=NCC(=O)N2C [QH-ii-066, 1-Methyl-7-acetyleno-5-phenyl-1,3-dihydro-benzo [e]-1,4-diazepin-2-one]	less effective in producing sedative or hypnotic effects than diazepam or triazolam	100	less potent in producing ataxia than diazepam or triazolam	>100	<30 mg/kg	anticonvulsant effects against PTZ-induced seizures at doses comparable to those for diazepam and triazolam	< 10 nM	< 50 nM	< 50 nM	> 70 nM	less potent in producing CDP-like effects than diazepam or triazolam	30
C#Cc1ccc2c(c1)C(c1ccccc1)=NCc1c(C(=O)OCC)ncn1-2 [XHe-ii-053, Ethyl 8-acetylenyl-6-phenyl-4H-benzo[f]imidazo[1,5-a][1,4]diazepine-3-carboxylate]	less effective in producing sedative or hypnotic effects than diazepam or triazolam	>300	less potent in producing ataxia than diazepam or triazolam	>300	≦100 mg/kg	effective against PTZ-induced seizures					less potent in producing CDP-like effects than diazepam or triazolam	>300
C#Cc1ccc2c(c1)C(c1ccccc1Cl)=NCc1nnc(C)n1-2 [XLi-JY-DMH, 8-Acetyleno-5-(2′-chlorophenyl)-1-methyl-4H-s-triazolo-[4,3-a]-1,4-benzodiazepine]	less effective in producing sedative or hypnotic effects than diazepam or triazolam	10000	less potent in producing ataxia than diazepam or triazolam	10000	<1.0 mg/kg	anticonvulsant effects against PTZ-induced seizures at doses comparable to those for diazepam and triazolam					less potent in producing CDP-like effects than diazepam or triazolam	1000
